According to ChEMBL document CHEMBL1144933, “Novel bioactive and stable neurotensin peptide analogues capable of delivering radiopharmaceuticals and molecular beacons to tumors” (J Med Chem, 2003):
pIC50: −log10 of the molar value. *1 amine or outer side, *2 acyl side, *3 side chain or, on linkers, in order; H or OH if unused. Where a SMILES comes first, the peptide text is derived from it. [ ]: non-standard residue; d: D form. The star is where a group is joined. Abu(1-amidino-4-piperidyl) = N=C(N)N1CCC(CC[C@H](N)C(=O)O)CC1; Gly(1-amidinopiperidin-4-yl) = N=C(N)N1CCC([C@H](N)C(=O)O)CC1; Ala(1-amidino-4-piperidyl) = N=C(N)N1CCC(C[C@H](N)C(=O)O)CC1; FITC = O=C1OC2(c3ccc(O)cc3Oc3cc(O)ccc32)c2ccc(NC(=S)*)cc21; DTPA = O=C(O)CN(CCN(CC(=O)O)CC(=O)O)CCN(CC(=O)O)CC(=O)*; Phe(4-guanidino) = N=C(N)Nc1ccc(C[C@H](N)C(=O)O)cc1; Gly(piperidin-4-yl) = N[C@H](C(=O)O)C1CCNCC1; X1 = NCC1CCC(C[C@H](N[*:1])C(=O)[*:2])CC1; Tle = CC(C)(C)[C@H](N)C(=O)O

What follows are compounds tested against Neurotensin receptor type 1 (Homo sapiens, UniProt P30989) (assay: Binding affinity towards neurotensin receptor in membranes prepared from HT-29 cell line, relative to [111In]-labeled neurotensin peptide). Conditions: not given.
Neurotensin receptor type 1, sequence (P30989 whole entry): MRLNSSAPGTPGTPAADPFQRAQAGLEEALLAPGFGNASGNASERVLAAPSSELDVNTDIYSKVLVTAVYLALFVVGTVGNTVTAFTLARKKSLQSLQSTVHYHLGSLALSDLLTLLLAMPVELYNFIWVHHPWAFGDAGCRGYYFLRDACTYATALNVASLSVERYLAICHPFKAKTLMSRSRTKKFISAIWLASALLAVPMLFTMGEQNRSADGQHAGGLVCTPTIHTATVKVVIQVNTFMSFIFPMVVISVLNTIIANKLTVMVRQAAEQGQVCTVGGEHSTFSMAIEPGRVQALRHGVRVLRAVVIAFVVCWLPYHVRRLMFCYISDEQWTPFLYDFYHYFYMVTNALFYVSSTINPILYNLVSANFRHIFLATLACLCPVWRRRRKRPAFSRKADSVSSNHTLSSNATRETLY

| Structure (SMILES) | pIC50 |
| --- | --- |
| CC[C@H](C)[C@H](NC(=O)[C@H](Cc1ccc(O)cc1)NC(=O)[C@@H]1CCCN1C(=O)[C@H](CCCN=C(N)N)NC(=O)[C@H](Cc1ccc(NC(=N)N)cc1)NC(=O)[C@@H]1CCCN1C(=O)[C@@H](CCCCN)NC(=O)CN(CCN(CCN(CC(=O)O)CC(=O)O)CC(=O)O)CC(=O)O)C(=O)N[C@@H](CC(C)C)C(=O)O | 9.30 |
| CC[C@H](C)[C@H](NC(=O)[C@H](Cc1ccc(O)cc1)NC(=O)[C@@H]1CCCN1C(=O)[C@H](Cc1ccc(N=C(N)N)cc1)NC(=O)[C@H](CCCNC(=N)N)NC(=O)[C@@H]1CCCN1C(=O)[C@@H](CCCCN)NC(=O)CN(CCN(CCN(CC(=O)O)CC(=O)O)CC(=O)O)CC(=O)O)C(=O)N[C@@H](CC(C)C)C(=O)O | 9.40 |
| CC(C)(C)[C@H](NC(=O)[C@H](Cc1ccc(O)cc1)NC(=O)[C@@H]1CCCN1C(=O)[C@H](CCCN=C(N)N)NC(=O)[C@@H](NC(=O)[C@@H]1CCCN1C(=O)[C@H](CCCCN)NC(=O)[C@H](CC(N)=O)NC(=O)[C@H](CCC(=O)O)NC(=O)[C@@H](Cc1ccc(O)cc1)NC(=O)CN(CCN(CCN(CC(=O)O)CC(=O)O)CC(=O)O)CC(=O)O)C1CCN(C(=N)N)CC1)C(=O)N[C@@H](CC1CCCCC1)C(=O)O | 9.22 |
| CC(C)(C)C[C@H](NC(=O)[C@@H](NC(=O)[C@H](Cc1ccc(O)cc1)NC(=O)[C@@H]1CCCN1C(=O)[C@H](CCCNC(=N)N)NC(=O)[C@@H](NC(=O)[C@@H]1CCCN1C(=O)[C@H](CCCCN)NC(=O)[C@H](CC(N)=O)NC(=O)[C@H](CCC(=O)O)NC(=O)[C@@H](Cc1ccc(O)cc1)NC(=O)CN(CCN(CCN(CC(=O)O)CC(=O)O)CC(=O)O)CC(=O)O)C1CCN(C(=N)N)CC1)C(C)(C)C)C(=O)O | 9.40 |
| CC(C)(C)[C@H](NC(=O)[C@H](Cc1ccc(O)cc1)NC(=O)[C@@H]1CCCN1C(=O)[C@H](CCCNC(=N)N)NC(=O)[C@@H](NC(=O)[C@@H]1CCCN1C(=O)[C@@H](CCCCN)NC(=O)CN(CCN(CCN(CC(=O)O)CC(=O)O)CC(=O)O)CC(=O)O)C1CCN(C(=N)N)CC1)C(=O)N[C@@H](CC1CCCC1)C(=O)O | 7.37 |
| CC(C)C[C@H](NC(=O)[C@@H](NC(=O)[C@H](Cc1ccc(O)cc1)NC(=O)[C@@H]1CCCN1C(=O)[C@H](CCCN=C(N)N)NC(=O)[C@@H](NC(=O)[C@@H]1CCCN1C(=O)[C@H](CCCCN)NC(=O)[C@H](CC(N)=O)NC(=O)[C@H](CCC(=O)O)NC(=O)[C@@H](Cc1ccc(O)cc1)NC(=O)CN(CCN(CCN(CC(=O)O)CC(=O)O)CC(=O)O)CC(=O)O)C1CCN(C(=N)N)CC1)C(C)(C)C)C(=O)O | 8.82 |
| CC(C)C[C@H](NC(=O)[C@@H](NC(=O)[C@H](Cc1ccc(O)cc1)NC(=O)[C@@H]1CCCN1C(=O)[C@H](CCCN=C(N)N)NC(=O)[C@H](Cc1ccc(NC(=N)N)cc1)NC(=O)[C@@H]1CCCN1C(=O)[C@@H](CCCCN)NC(=O)CN(CCN(CCN(CC(=O)O)CC(=O)O)CC(=O)O)CC(=O)O)C(C)(C)C)C(=O)O ({DTPA}-[dK]P[Phe(4-guanidino)]RPY[Tle]L-OH) | 7.61 |
| CC[C@H](C)[C@H](NC(=O)[C@H](Cc1ccc(O)cc1)NC(=O)[C@@H]1CCCN1C(=O)[C@H](Cc1ccc(NC(=N)N)cc1)NC(=O)[C@H](Cc1ccc(NC(=N)N)cc1)NC(=O)[C@@H]1CCCN1C(=O)[C@@H](CCCCN)NC(=O)CN(CCN(CCN(CC(=O)O)CC(=O)O)CC(=O)O)CC(=O)O)C(=O)N[C@@H](CC(C)C)C(=O)O ({DTPA}-[dK]P[Phe(4-guanidino)][Phe(4-guanidino)]PYIL-OH) | 7.66 |

More lines, now with the values ahead:

| pIC50 | Structure (SMILES) |
| --- | --- |
| 7.94 | CC(C)C[C@H](NC(=O)[C@@H](NC(=O)[C@H](Cc1ccc(O)cc1)NC(=O)[C@@H]1CCCN1C(=O)[C@H](CCCNC(=N)N)NC(=O)[C@@H](NC(=O)[C@H](CCCN=C(N)N)NC(=O)[C@@H]1CCN1C(=O)[C@@H](CCCCN)NC(=O)CN(CCN(CCN(CC(=O)O)CC(=O)O)CC(=O)O)CC(=O)O)C1CCN(C(=N)N)CC1)C(C)(C)C)C(=O)O |
| 7.66 | CC(C)(C)C[C@H](NC(=O)[C@@H](NC(=O)[C@H](Cc1ccc(O)cc1)NC(=O)[C@@H]1CCCN1C(=O)[C@H](CCCN=C(N)N)NC(=O)[C@@H](NC(=O)[C@@H]1CCCN1C(=O)[C@@H](CCCCN)NC(=O)CN(CCN(CCN(CC(=O)O)CC(=O)O)CC(=O)O)CC(=O)O)C1CCN(C(=N)N)CC1)C(C)(C)C)C(=O)O |
| 7.93 | CC(C)(C)[C@H](NC(=O)[C@H](Cc1ccc(O)cc1)NC(=O)[C@@H]1CCCN1C(=O)[C@H](CCCN=C(N)N)NC(=O)[C@@H](NC(=O)[C@@H]1CCCN1C(=O)[C@@H](CCCCN)NC(=O)CN(CCN(CCN(CC(=O)O)CC(=O)O)CC(=O)O)CC(=O)O)C1CCN(C(=N)N)CC1)C(=O)N[C@@H](CC1CCCCC1)C(=O)O |
| 6.95 | CC(C)C[C@H](NC(=O)[C@@H](NC(=O)[C@H](Cc1ccc(O)cc1)NC(=O)[C@@H]1CCN1C(=O)[C@H](CCCN=C(N)N)NC(=O)[C@@H](NC(=O)[C@H](CCCN=C(N)N)NC(=O)[C@@H]1CCCN1C(=O)[C@@H](CCCCN)NC(=O)CN(CCN(CCN(CC(=O)O)CC(=O)O)CC(=O)O)CC(=O)O)C1CCN(C(=N)N)CC1)C(C)(C)C)C(=O)O |
| 9.52 | CC(C)C[C@H](NC(=O)[C@@H](NC(=O)[C@H](Cc1ccc(O)cc1)NC(=O)[C@@H]1CCCN1C(=O)[C@H](CCCN=C(N)N)NC(=O)[C@@H](NC(=O)[C@@H]1CCCN1C(=O)[C@H](CC1CCC(CN)CC1)NC(=O)CN(CCN(CCN(CC(=O)O)CC(=O)O)CC(=O)O)CC(=O)O)C1CCN(C(=N)N)CC1)C(C)(C)C)C(=O)O (stereo partly drawn) ({DTPA}-[X1]P[Gly(1-amidinopiperidin-4-yl)]RPY[Tle]L-OH) |
| 8.20 | CC(C)C[C@H](NC(=O)[C@@H](NC(=O)[C@H](Cc1ccc(O)cc1)NC(=O)[C@@H]1CCCN1C(=O)[C@H](CCCNC(=N)N)NC(=O)[C@H](CCC1CCN(C(=N)N)CC1)NC(=O)[C@@H]1CCCN1C(=O)[C@@H](CCCCN)NC(=O)CN(CCN(CCN(CC(=O)O)CC(=O)O)CC(=O)O)CC(=O)O)C(C)(C)C)C(=O)O ({DTPA}-[dK]P[Abu(1-amidino-4-piperidyl)]RPY[Tle]L-OH) |
| 8.60 | CC(C)C[C@H](NC(=O)[C@@H](NC(=O)[C@H](Cc1ccc(O)cc1)NC(=O)[C@@H]1CCCN1C(=O)[C@H](CCCNC(=N)N)NC(=O)[C@H](CC1CCN(C(=N)N)CC1)NC(=O)[C@@H]1CCCN1C(=O)[C@@H](CCCCN)NC(=O)CN(CCN(CCN(CC(=O)O)CC(=O)O)CC(=O)O)CC(=O)O)C(C)(C)C)C(=O)O ({DTPA}-[dK]P[Ala(1-amidino-4-piperidyl)]RPY[Tle]L-OH) |

Same assay, conditions: ht-29

| Structure (SMILES) | pIC50 |
| --- | --- |
| CC[C@H](C)[C@H](NC(=O)[C@H](Cc1ccc(O)cc1)NC(=O)[C@@H]1CCCN1C(=O)[C@H](CCCN=C(N)N)NC(=O)[C@H](CCc1ccnc(N)n1)NC(=O)[C@@H]1CCCN1C(=O)[C@@H](CCCCN)NC(=O)CN(CCN(CCN(CC(=O)O)CC(=O)O)CC(=O)O)CC(=O)O)C(=O)N[C@@H](CC(C)C)C(=O)O | 7.99 |
| CC[C@H](C)[C@H](NC(=O)[C@H](Cc1ccc(O)cc1)NC(=O)[C@@H]1CCCN1C(=O)[C@H](CCCN=C(N)N)NC(=O)[C@@H](NC(=O)[C@@H]1CCCN1C(=O)[C@@H](CCCCNC(=S)Nc1ccc2c(c1)C(=O)OC21c2ccc(O)cc2Oc2cc(O)ccc21)NC(=S)Nc1ccc2c(c1)C(=O)OC21c2ccc(O)cc2Oc2cc(O)ccc21)C1CCN(C(=N)N)CC1)C(=O)N[C@@H](CC(C)C)C(=O)O | 8.47 |
| CC[C@H](C)[C@H](NC(=O)[C@H](Cc1ccc(O)cc1)NC(=O)[C@@H]1CCCN1C(=O)[C@H](CCCN=C(N)N)NC(=O)[C@@H](NC(=O)[C@@H]1CCCN1C(=O)[C@H](N)CCCCNC(=S)Nc1ccc2c(c1)C(=O)OC21c2ccc(O)cc2Oc2cc(O)ccc21)C1CCN(C(=N)N)CC1)C(=O)N[C@@H](CC(C)C)C(=O)O | 9.22 |
| CC[C@H](C)[C@H](NC(=O)[C@H](Cc1ccc(O)cc1)NC(=O)[C@@H]1CCCN1C(=O)[C@H](CCCNC(=N)N)NC(=O)[C@@H](NC(=O)[C@@H]1CCCN1C(=O)[C@@H](CCCCN)NC(=S)Nc1ccc2c(c1)C(=O)OC21c2ccc(O)cc2Oc2cc(O)ccc21)C1CCN(C(=N)N)CC1)C(=O)N[C@@H](CC(C)C)C(=O)O | 8.92 |
| CC(C)C[C@H](NC(=O)[C@@H](NC(=O)[C@H](Cc1ccc(O)cc1)NC(=O)[C@@H]1CCCN1C(=O)[C@H](CCCNC(=N)N)NC(=O)[C@@H](NC(=O)[C@@H]1CCCN1C(=O)[C@H](CC1CCN(C(=N)N)CC1)NC(=O)CN(CCN(CCN(CC(=O)O)CC(=O)O)CC(=O)O)CC(=O)O)C1CCN(C(=N)N)CC1)C(C)(C)C)C(=O)O ({DTPA}-[Ala(1-amidino-4-piperidyl)]P[Gly(1-amidinopiperidin-4-yl)]RPY[Tle]L-OH) | < 6.00 |
| CC(C)C[C@H](NC(=O)[C@@H](NC(=O)[C@H](Cc1ccc(O)cc1)NC(=O)[C@@H]1CCCN1C(=O)[C@H](CCCN=C(N)N)NC(=O)[C@@H](NC(=O)[C@@H]1CCCN1C(=O)[C@@H](NC(=S)Nc1ccc2c(c1)C(=O)OC21c2ccc(O)cc2Oc2cc(O)ccc21)C1CCNCC1)C1CCN(C(=N)N)CC1)C(C)(C)C)C(=O)O ({FITC}-[Gly(piperidin-4-yl)]P[Gly(1-amidinopiperidin-4-yl)]RPY[Tle]L-OH) | 9.30 |

Second part, the compound after the results:

| pIC50 | Structure (SMILES) |
| --- | --- |
| 9.22 | CC(C)C[C@H](NC(=O)[C@@H](NC(=O)[C@@H](Cc1ccc(O)cc1)NC(=O)[C@@H]1CCCN1C(=O)[C@H](CCCN=C(N)N)NC(=O)[C@@H](NC(=O)[C@@H]1CCCN1C(=O)[C@@H](CCCCN)NC(=O)CN(CCN(CCN(CC(=O)O)CC(=O)O)CC(=O)O)CC(=O)O)C1CCN(C(=N)N)CC1)C(C)(C)C)C(=O)O |
| 6.97 | CC(C)C[C@H](NC(=O)[C@@H](NC(=O)[C@H](Cc1cccc(O)c1)NC(=O)[C@@H]1CCCN1C(=O)[C@H](CCCN=C(N)N)NC(=O)[C@@H](NC(=O)[C@@H]1CCCN1C(=O)[C@@H](CCCCN)NC(=O)CN(CCN(CCN(CC(=O)O)CC(=O)O)CC(=O)O)CC(=O)O)C1CCN(C(=N)N)CC1)C(C)(C)C)C(=O)O |
| 7.22 | CC(C)C[C@H](NC(=O)[C@@H](NC(=O)[C@H](Cc1ccc(O)cc1)NC(=O)[C@@H]1CCCN1C(=O)[C@@H](NC(=O)[C@@H](NC(=O)[C@@H]1CCCN1C(=O)[C@@H](CCCCN)NC(=O)CN(CCN(CCN(CC(=O)O)CC(=O)O)CC(=O)O)CC(=O)O)C1CCN(C(=N)N)CC1)C1CCNCC1)C(C)(C)C)C(=O)O |
| 9.40 | CC(C)C[C@H](NC(=O)[C@@H](NC(=O)[C@H](Cc1ccc(O)cc1)NC(=O)[C@@H]1CCCN1C(=O)[C@H](CCCN=C(N)N)NC(=O)[C@@H](NC(=O)[C@@H]1CCCN1C(=O)[C@@H](CCCCN)NC(=O)CN(CCN(CCN(CC(=O)O)CC(=O)O)CC(=O)O)CC(=O)O)C1CCN(C(=N)N)CC1)C(C)(C)C)C(=O)O |
